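Test compounds were applied to cells in 96-well plates for 48 hours at 5 doses. The concentration for 50% growth inhibition is given as GI50.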 Active and inactive are the calls of the source. No stated cut-off is given here; in the data, active = GI50 up to about 1.1 µM and inactive = higher.
Experiments:
Experiment in all cases: NCI anticancer screen, dose series, 48 h
SR = tested on: SR
NCI-H460 = tested on: NCI-H460
HCC 2998 = tested on: HCC 2998
SN12C = tested on: SN12C
SK-MEL-5 = tested on: SK-MEL-5
CAKI-1 = tested on: CAKI-1
NCI/ADR-RES = tested on: NCI/ADR-RES
Malme-3M = tested on: Malme-3M
SF-268 = tested on: SF-268
MDA-N = tested on: MDA-N
A498 = tested on: A498
MDA-MB-435 = tested on: MDA-MB-435
NCI-H23 = tested on: NCI-H23
MDA-MB-231 = tested on: MDA-MB-231
NCI-H226 = tested on: NCI-H226
SW-620 = tested on: SW-620
ACHN = tested on: ACHN
OVCAR-3 = tested on: OVCAR-3
UACC-62 = tested on: UACC-62
LOX IMVI = tested on: LOX IMVI

Measured: GI50

Cc1nc([N+](=O)[O-])cn1-c1nc2ccccn2c1[N+](=O)[O-]
inactive: SR 42 µM | NCI-H460 45.1 µM | HCC 2998 41.2 µM | SN12C 30 µM | SK-MEL-5 81.8 µM | CAKI-1 53.5 µM | NCI/ADR-RES > 100 µM | Malme-3M 43.8 µM | SF-268 > 100 µM | MDA-N 57.4 µM | A498 > 100 µM | MDA-MB-435 > 100 µM | NCI-H23 47.8 µM | MDA-MB-231 56.4 µM | NCI-H226 > 100 µM | SW-620 > 100 µM | ACHN > 100 µM | OVCAR-3 > 100 µM | UACC-62 > 100 µM

CCn1c(SCC(=O)NNC(=S)Nc2ccc(C)cc2)nc2ccccc2c1=O
inactive: SR 40.6 µM | NCI-H460 1.6 µM | HCC 2998 > 100 µM | LOX IMVI > 100 µM | SN12C > 100 µM | SK-MEL-5 > 100 µM | NCI/ADR-RES > 100 µM | Malme-3M > 100 µM | SF-268 57.3 µM | MDA-N > 100 µM | A498 > 100 µM | MDA-MB-435 > 100 µM | NCI-H23 > 100 µM | MDA-MB-231 > 100 µM | NCI-H226 > 100 µM | SW-620 > 100 µM | ACHN > 100 µM | OVCAR-3 > 100 µM | UACC-62 > 100 µM

COC(=O)c1c2c(cc3c1CC1(Cc4cc5c(c(C=O)c4C1)CCCC5)C3)CCCC2 (configuration not stated)
inactive: SR 36.8 µM | HCC 2998 39 µM | LOX IMVI > 100 µM | SN12C 70 µM | SK-MEL-5 71.4 µM | NCI/ADR-RES 94.6 µM | Malme-3M > 100 µM | MDA-N 89.3 µM | A498 66.8 µM | MDA-MB-435 > 100 µM | NCI-H23 57.9 µM | MDA-MB-231 32.7 µM | NCI-H226 80 µM | ACHN 23.9 µM | OVCAR-3 29.9 µM | UACC-62 23.5 µM

C[C@@H](c1ccccc1)C(CC#N)[C@H]1CCC[C@]1(O)C#Cc1ccc2c(c1)OCO2 (some centres not stated)
inactive: SR 19.7 µM | NCI-H460 16.1 µM | HCC 2998 16.3 µM | LOX IMVI 18.5 µM | SK-MEL-5 18.6 µM | CAKI-1 15.8 µM | NCI/ADR-RES 16 µM | Malme-3M 15.8 µM | SF-268 19.6 µM | MDA-N 16.7 µM | A498 19.8 µM | MDA-MB-435 16.6 µM | NCI-H23 17.7 µM | MDA-MB-231 17.5 µM | NCI-H226 17.5 µM | SW-620 17.9 µM | ACHN 16.6 µM | OVCAR-3 15.6 µM | UACC-62 16.6 µM

C=C1C(=O)O[C@H]2C[C@@H]1C(=O)CC(C)CCCC(C)=CCC[C@@]2(C)O (some centres not stated)
inactive: SR 16.8 µM | NCI-H460 > 25 µM | HCC 2998 > 25 µM | LOX IMVI > 25 µM | SN12C > 25 µM | SK-MEL-5 > 25 µM | NCI/ADR-RES > 25 µM | Malme-3M > 25 µM | SF-268 > 25 µM | MDA-N > 25 µM | A498 > 25 µM | MDA-MB-435 > 25 µM | NCI-H23 > 25 µM | MDA-MB-231 > 25 µM | NCI-H226 > 25 µM | SW-620 > 25 µM | ACHN > 25 µM | OVCAR-3 > 25 µM | UACC-62 > 25 µM

O=C(Nc1ccc(Cl)cc1)c1cc(S(=O)(=O)N2CCNNC2=O)c(S)cc1Cl
inactive: SR > 100 µM | NCI-H460 > 100 µM | HCC 2998 > 100 µM | LOX IMVI > 100 µM | SN12C > 100 µM | SK-MEL-5 > 100 µM | CAKI-1 > 100 µM | NCI/ADR-RES > 100 µM | Malme-3M > 100 µM | SF-268 > 100 µM | MDA-N > 100 µM | A498 > 100 µM | MDA-MB-435 > 100 µM | MDA-MB-231 > 100 µM | NCI-H226 > 100 µM | SW-620 > 100 µM | ACHN > 100 µM | OVCAR-3 > 100 µM | UACC-62 > 100 µM

COc1ccc(NC(=O)CSc2nnc(-c3ccc(/N=C\c4ccc(Cl)cc4)cc3)o2)cc1
inactive: SR 13.3 µM | NCI-H460 > 67.3 µM | HCC 2998 52.8 µM | LOX IMVI 7.98 µM | SN12C 16.1 µM | SK-MEL-5 27.3 µM | NCI/ADR-RES 42.3 µM | Malme-3M 34 µM | SF-268 13.6 µM | MDA-N 39.6 µM | A498 > 100 µM | MDA-MB-435 34 µM | NCI-H23 36 µM | MDA-MB-231 34.5 µM | NCI-H226 > 44.6 µM | SW-620 22.1 µM | ACHN > 52.4 µM | OVCAR-3 21.4 µM | UACC-62 28.8 µM

CCCC[C@@H](C)/C=C1\CN2CCC[C@H]2[C@@](C)(O)[C@@H]1O
inactive: SR 9.2 µM | NCI-H460 16.7 µM | HCC 2998 71.3 µM | LOX IMVI 22.8 µM | SK-MEL-5 79.1 µM | CAKI-1 4.2 µM | NCI/ADR-RES 58.9 µM | Malme-3M > 100 µM | SF-268 44.7 µM | MDA-N > 100 µM | A498 > 100 µM | MDA-MB-435 96.2 µM | NCI-H23 32.9 µM | MDA-MB-231 > 100 µM | NCI-H226 > 100 µM | SW-620 > 100 µM | ACHN 42 µM | OVCAR-3 > 100 µM | UACC-62 38.7 µM

O=[N+]([O-])/C(C(Cl)=C(Cl)Cl)=C(\N1CCCCC1)n1nnc2ccccc21
inactive: SR 16.4 µM | NCI-H460 22.4 µM | LOX IMVI 16.7 µM | SN12C 18.3 µM | SK-MEL-5 17.5 µM | CAKI-1 15.3 µM | NCI/ADR-RES 29.6 µM | Malme-3M 21.6 µM | SF-268 20.8 µM | MDA-N 20.8 µM | A498 19.2 µM | MDA-MB-435 31.6 µM | NCI-H23 19.1 µM | MDA-MB-231 17.3 µM | NCI-H226 20 µM | SW-620 19.1 µM | ACHN 19.7 µM | OVCAR-3 17.9 µM | UACC-62 18.6 µM

CCOC(=O)c1nnsc1NC(=O)NCCCCCCn1c(=O)n(CCCCCCNC(=O)Nc2snnc2C(=O)OCC)c(=O)n(CCCCCCNC(=O)Nc2snnc2C(=O)OCC)c1=O
inactive: SR > 100 µM | NCI-H460 21.5 µM | HCC 2998 39.5 µM | SN12C 33.3 µM | SK-MEL-5 71.1 µM | CAKI-1 76.9 µM | NCI/ADR-RES > 100 µM | Malme-3M 25.1 µM | SF-268 19.8 µM | MDA-N 36.8 µM | A498 67.1 µM | MDA-MB-435 63.7 µM | NCI-H23 24.9 µM | MDA-MB-231 15.2 µM | NCI-H226 18.1 µM | SW-620 67.6 µM | ACHN 47 µM | OVCAR-3 57.8 µM | UACC-62 17.3 µM
